Reference: PMC10482267, “Safety, tolerability, pharmacokinetics, and pharmacodynamics of single and multiple doses of aficamten in healthy Chinese participants: a randomized, double-blind, placebo-controlled, phase 1 study” (Frontiers in Pharmacology, 2023)
Where two headings read alike, the source gives them in different places.

What was measured:
[1] = tested on: healthy Chinese participants; format: in vivo, human
From the text: Of note, the study was not designed to identify a maximum tolerated dose. Dose escalation was to stop if a non-tolerated dose was identified. PD endpoints, including left ventricular ejection fraction (LVEF), would be measured with echocardiograms, which were reviewed by an independent cardiologist for safety assessments. The study drug would be discontinued for participants who develop left ventricular dysfunction according to pre-specified stopping rules. For additional safety monitoring, an independent, unblinded cardiologist was present at the clinical research unit from dosing through the completion of the echocardiogram on the last dosing day.
Echocardiography assessments (left ventricular fractional shortening [LVFS], left ventricular stroke volume [LVSV], left ventricular outflow tract velocity time integral [LVOT-VTI], left ventricular end-systolic volume [LVESV], left ventricular end-diastolic volume [LVEDV], left ventricular cardiac output [LVCO], and LVEF) for the SAD cohorts were collected on day 1 (baseline) and at 1.5, 4, and 24 h post-dose on day 1. For the MD cohort, the assessments were collected on day 1 (baseline) at 1.5 and 4 h post-dose on day 1, at 1.5 h post-dose on days 2, 4, and 9, and at 3 and 24 h post-dose on day 14.
Of all the echocardiography parameters, the key parameters LVEF and LVFS were classified as follows with the number of participants summarized for each dosing condition: for the LVEF category, baseline LVEF ≥60%, and post-dose LVEF <50% or <45%; change of LVEF from baseline ≤ 5%, ≤10%, or ˂15%; for the VLFS category, change of LVFS from baseline ≤ 5%, ≤10%, or ˂15%. The dose–PD response relationship between the aficamten dose and placebo group was assessed using ANOVA analysis. […] Furthermore, the relationship between PK concentration–PD response was also assessed using ANCOVA analysis of post-dose PD parameters based on changes from baseline. The model included changes from baseline in PD parameters as the dependent variables, concentration tertiles (categorical variables) as fixed effects, baseline PD parameters as covariates, and the random intercept to account for repeated measures. In addition, the heart rate (HR), systolic blood pressure (SBP), and diastolic blood pressure (DBP) were collected as a part of the vital sign assessments at pre-dose and post-dose.

CYP2D6 = tested on: CYP2D6; set-up: method as in not given; details: in vitro; forms metabolites CK-3834282 and CK-3834283; ref not given; cited from earlier work
[2] = MD 5 mg N=9, 25.5 h (1.5 hours post-dose on Day 2)
[3] = MD 5 mg N=9, 73.5 h (1.5 hours post-dose on Day 4)
[4] = MD 5 mg N=9, 193.5 h (1.5 hours post-dose on Day 9)
[5] = MD 5 mg N=9, 315 h (3 hours post-dose on Day 14)
[6] = MD 5 mg N=9, 336 h (24 hours post-dose on Day 14)

In the case of `CCc1nc(-c2ccc3c(c2)CC[C@H]3NC(=O)c2cnn(C)c2)no1` [aficamten], the “LVEF Change From Baseline ≤ -5, participants” value ([1]; MD 5 mg N=9, 1.5 h) is reported as 1 (11.11%) n (%), the “LVEF Change From Baseline ≤ -10, participants” value ([1]; MD 5 mg N=9, 1.5 h) is reported as 0 (0%) n (%) and the “LVEF Change From Baseline ≤ -15, participants” value ([1]; MD 5 mg N=9, 1.5 h) is reported as 0 (0%) n (%). For the same compound, the “LVFS Change from Baseline ≤ -5, participants” value (from here on “LVFS Change … -5, participants”) ([1]; MD 5 mg N=9, 1.5 h) was 3 (33.33%) n (%), the “LVFS Change from Baseline ≤ -10, participants” value (“LVFS Change … -10, participants” below) ([1]; MD 5 mg N=9, 1.5 h) was 1 (11.11%) n (%) and the “LVFS Change from Baseline ≤ -15, participants” value (“LVFS Change … -15, participants” below) ([1]; MD 5 mg N=9, 1.5 h) was 0 (0%) n (%). The “LVEF Change From Baseline ≤ -5, participants” value [1, 2] was 4 (44.44%) n (%), the “LVEF Change From Baseline ≤ -10, participants” value [1, 2] was 0 (0%) n (%) and the “LVEF Change From Baseline ≤ -15, participants” value [1, 2] was 0 (0%) n (%). For the same compound, the “LVFS Change … -5, participants” value [1, 2] was 4 (44.44%) n (%), the “LVFS Change … -10, participants” value [1, 2] was 0 (0%) n (%) and the “LVFS Change … -15, participants” value [1, 2] was 0 (0%) n (%). For the same compound, the “LVEF Change From Baseline ≤ -5, participants” value [1, 3] was 3 (33.33%) n (%), the “LVEF Change From Baseline ≤ -10, participants” value [1, 3] was 0 (0%) n (%) and the “LVEF Change From Baseline ≤ -15, participants” value [1, 3] was 0 (0%) n (%). For the same compound, the “LVFS Change … -5, participants” value [1, 3] was 5 (55.56%) n (%), the “LVFS Change … -10, participants” value [1, 3] was 1 (11.11%) n (%) and the “LVFS Change … -15, participants” value [1, 3] was 0 (0%) n (%). The “LVEF Change From Baseline ≤ -5, participants” value [1, 4] was 1 (11.11%) n (%), the “LVEF Change From Baseline ≤ -10, participants” value [1, 4] was 0 (0%) n (%) and the “LVEF Change From Baseline ≤ -15, participants” value [1, 4] was 0 (0%) n (%). The “LVFS Change … -5, participants” value [1, 4] was 4 (44.44%) n (%), the “LVFS Change … -10, participants” value [1, 4] was 0 (0%) n (%) and the “LVFS Change … -15, participants” value [1, 4] was 0 (0%) n (%). For the same compound, the “LVEF Change From Baseline ≤ -5, participants” value [1, 5] was 2 (22.22%) n (%), the “LVEF Change From Baseline ≤ -10, participants” value [1, 5] was 0 (0%) n (%) and the “LVEF Change From Baseline ≤ -15, participants” value [1, 5] was 0 (0%) n (%). The “LVFS Change … -5, participants” value [1, 5] was 1 (11.11%) n (%), the “LVFS Change … -10, participants” value [1, 5] was 0 (0%) n (%) and the “LVFS Change … -15, participants” value [1, 5] was 0 (0%) n (%). The “LVEF Change From Baseline ≤ -5, participants” value [1, 6] was 2 (22.22%) n (%), the “LVEF Change From Baseline ≤ -10, participants” value [1, 6] was 0 (0%) n (%) and the “LVEF Change From Baseline ≤ -15, participants” value [1, 6] was 0 (0%) n (%). For the same compound, the “LVFS Change … -5, participants” value [1, 6] was 1 (11.11%) n (%), the “LVFS Change … -10, participants” value [1, 6] was 0 (0%) n (%) and the “LVFS Change … -15, participants” value [1, 6] was 0 (0%) n (%). For the same compound, the “exposure–response analysis of change from baseline in echocardiogram parameters vs time-matched plasma concentrations” value ([1]; MD 5 mg cohort) was “did not show a statistically significant effect”, the “LVEF Change From Baseline ≤ -5, participants” value ([1]; SAD 10 mg N=6, 1.5 h) was 1 (16.67%) n (%) and the “LVEF Change From Baseline ≤ -10, participants” value ([1]; SAD 10 mg N=6, 1.5 h) was 0 (0%) n (%). For the same compound, the “LVEF Change From Baseline ≤ -15, participants” value ([1]; SAD 10 mg N=6, 1.5 h) was 0 (0%) n (%), the “LVFS Change … -5, participants” value ([1]; SAD 10 mg N=6, 1.5 h) was 1 (16.67%) n (%) and the “LVFS Change … -10, participants” value ([1]; SAD 10 mg N=6, 1.5 h) was 0 (0%) n (%). For the same compound, the “LVFS Change … -15, participants” value ([1]; SAD 10 mg N=6, 1.5 h) was 0 (0%) n (%), the “LVEF Change From Baseline ≤ -5, participants” value ([1]; SAD 10 mg N=6, 4 h) was 1 (16.67%) n (%) and the “LVEF Change From Baseline ≤ -10, participants” value ([1]; SAD 10 mg N=6, 4 h) was 0 (0%) n (%). For the same compound, the “LVEF Change From Baseline ≤ -15, participants” value ([1]; SAD 10 mg N=6, 4 h) was 0 (0%) n (%), the “LVFS Change … -5, participants” value ([1]; SAD 10 mg N=6, 4 h) was 0 (0%) n (%) and the “LVFS Change … -10, participants” value ([1]; SAD 10 mg N=6, 4 h) was 0 (0%) n (%). The “LVFS Change … -15, participants” value ([1]; SAD 10 mg N=6, 4 h) was 0 (0%) n (%), the “LVEF Change From Baseline ≤ -5, participants” value ([1]; SAD 10 mg N=6, 24 h) was 0 (0%) n (%) and the “LVEF Change From Baseline ≤ -10, participants” value ([1]; SAD 10 mg N=6, 24 h) was 0 (0%) n (%). The “LVEF Change From Baseline ≤ -15, participants” value ([1]; SAD 10 mg N=6, 24 h) was 0 (0%) n (%), the “LVFS Change … -5, participants” value ([1]; SAD 10 mg N=6, 24 h) was 1 (16.67%) n (%) and the “LVFS Change … -10, participants” value ([1]; SAD 10 mg N=6, 24 h) was 0 (0%) n (%). For the same compound, the “LVFS Change … -15, participants” value ([1]; SAD 10 mg N=6, 24 h) was 0 (0%) n (%), the “number of subjects with LVEF reduction of 5%–10%” value ([1]; SAD 10 mg-dose group, 1.5 h post-dose) was “one” and the “LVEF Change From Baseline ≤ -5, participants” value ([1]; SAD 20 mg N=6, 1.5 h) was 3 (50%) n (%). For the same compound, the “LVEF Change From Baseline ≤ -10, participants” value ([1]; SAD 20 mg N=6, 1.5 h) was 1 (16.67%) n (%), the “LVEF Change From Baseline ≤ -15, participants” value ([1]; SAD 20 mg N=6, 1.5 h) was 0 (0%) n (%) and the “LVFS Change … -5, participants” value ([1]; SAD 20 mg N=6, 1.5 h) was 3 (50%) n (%). The “LVFS Change … -10, participants” value ([1]; SAD 20 mg N=6, 1.5 h) was 1 (16.67%) n (%), the “LVFS Change … -15, participants” value ([1]; SAD 20 mg N=6, 1.5 h) was 0 (0%) n (%) and the “LVEF Change From Baseline ≤ -5, participants” value ([1]; SAD 20 mg N=6, 4 h) was 2 (33.33%) n (%). For the same compound, the “LVEF Change From Baseline ≤ -10, participants” value ([1]; SAD 20 mg N=6, 4 h) was 0 (0%) n (%), the “LVEF Change From Baseline ≤ -15, participants” value ([1]; SAD 20 mg N=6, 4 h) was 0 (0%) n (%) and the “LVFS Change … -5, participants” value ([1]; SAD 20 mg N=6, 4 h) was 1 (16.67%) n (%). For the same compound, the “LVFS Change … -10, participants” value ([1]; SAD 20 mg N=6, 4 h) was 0 (0%) n (%), the “LVFS Change … -15, participants” value ([1]; SAD 20 mg N=6, 4 h) was 0 (0%) n (%) and the “LVEF Change From Baseline ≤ -5, participants” value ([1]; SAD 20 mg N=6, 24 h) was 1 (16.67%) n (%). For the same compound, the “LVEF Change From Baseline ≤ -10, participants” value ([1]; SAD 20 mg N=6, 24 h) was 0 (0%) n (%), the “LVEF Change From Baseline ≤ -15, participants” value ([1]; SAD 20 mg N=6, 24 h) was 0 (0%) n (%) and the “LVFS Change … -5, participants” value ([1]; SAD 20 mg N=6, 24 h) was 2 (33.33%) n (%). The “LVFS Change … -10, participants” value ([1]; SAD 20 mg N=6, 24 h) was 0 (0%) n (%), the “LVFS Change … -15, participants” value ([1]; SAD 20 mg N=6, 24 h) was 0 (0%) n (%) and the “number of subjects with LVEF reduction of 10%–15%” value ([1]; SAD 20 mg group, 1.5 h post-dose) was “one”. For the same compound, the “number of participants with LVEF reduction of 5%–10%” value ([1]; SAD 20 mg-dose group, 1.5 h post-dose) was “three”, the “LVFS change from baseline vs placebo group by PK concentration group” value ([1]; SAD cohorts, group 2: 37.6–56.3 ng/mL, p < 0.05) was “statistically significant changes from baseline” and the “LVEF change from baseline vs placebo group by PK concentration group” value ([1]; SAD cohorts, group 3: 62.5–199.0 ng/mL, p < 0.05) was “statistically significant changes from baseline”. For the same compound, the “PK–PD relationship between plasma concentration and LVEF and LVFS” value ([1]; SAD cohorts, p < 0.05) was “significant inverse PK–PD relationships”, the “PD parameter changes from baseline, dose group vs placebo group” value ([1]; any dose group, ANOVA) was “no statistically significant difference” and the “CYP isoform involved in metabolism” value (CYP2D6) was “CYP2D6, as the primary isoform involved in aficamten metabolism”.
